# Results: US10369159B2, “Estrogen receptor β partial agonist having estrogen receptor α inhibitory effect, and gynecological disease therapeutic agent using same” (NOBELPHARMA CO., LTD., priority 2015, dated 2019)
# Several values for one entry are separate records, joined by “and”; a condition that tells them apart may be missing. Equal values may be shown once.
# How the values were obtained:
# MCP-1 = assay: Gene expression analysis of endometrial implants (TaqMan), MCP-1; type: in vivo, rat; details: corrected by GAPDH, n 6, E2 control 29.47 ± 20.81
# Method: (§1) Total RNA was extracted […] the rat-derived endometrial graft (27 specimens), then quality of the RNA was inspected with a spectrophotometer and bio-analyzer, and then reverse transcription reaction of the RNA was performed, followed by gene expression analysis was performed according to TaqMan method.
# (§2) RNA was extracted from the rat uterine horn strips and grafted uterine strip using the RNeasy Fibrous Tissue Mini Kit.
# (§3) Concentration of the extracted RNA was measured with a NanaoDrop. Also RIN measurements using a bioanalyzer (6000 nano kits) was carried out. A 6000 pico-kit was used for bioanalyzing of the two samples with low yield (Sample ID: 202, 507).
# (§4) cDNA obtained by reverse transcription reaction from 1000 ng/uL of commercially available Rat Tissue Universal Reference Total RNA (Catalog Number PR-UR-100, ZYAGEN Inc.) using SuperScript VILO Master Mix (hereinafter “Standard”) was used as a standard substance.
# (§5) Based on the concentration measured with a spectrophotometer, reverse transcription reaction of the specimen with Super Script VILO Master Mix was performed to give 50 ng/uL of cDNA (the following example). […]
# (§6) TaqMan reaction by using Step One Plus Real-Time PCR System was performed with standard 250, 62.5, 15.625, 3.9, 0.98 ng/well or sample 5.0 ng/well. A cycle of reaction, two minutes at 50° C. and 10 minutes at 95° C., followed by 15 seconds at 95° C. and one minute at 60° C., was repeated 40 cycles, then the fluorescence value FAM was measured in real time after the reaction at 60° C. In addition to the target eight genes, GAPDH gene as an internal control gene was measured. All the standards and samples were measured in triplicate.
# (§7) From each of the two calibration curves (target gene, GAPDH gene) obtained from the standard, gene expressions level of the target gene and GAPDH gene of the sample was calculated, respectively. […] And then, an average gene expression level of the samples in each group was calculated, followed by the average gene expression level of the two groups was used as a standard to compare with each of the other groups.
# [1] = test system: rat endometriosis model (grafted uterine strips); assay: Endometriosis inhibiting activity: grafted uterine strip weight in ovariectomized, E2-treated rat endometriosis model; type: in vivo; details: for Total wet weight of the grafted uterine strips: left and right strips including abdominal wall, vehicle 0.4785 g, Sham 0.2596 g; for Suppression rate of grafted uterine strip weight (% ± SE): vs vehicle control, strip weight after subtracting Sham abdominal wall; for Suppression rate of the grafted uterine strip (average value): vehicle control group set as 0%, Table 2
# Method: Buprenorphine hydrochloride (Lepetan injection 0.3 mg, Otsuka Pharmaceutical Co., Ltd., […] of which was diluted to 6.7 times with a physiological saline solution to provide 0.03 mg/mL solution when using) was administered subcutaneously into the back of the rats at a dose of 0.0024 mg/body (0.08 mL/body). The administration period was two days, which includes twice before and after the model preparation on the day when the model was prepared, and twice per day on the next day. It should be noted that the dosage amount of 0.0024 mg/body was the one that satisfied a recommended dose of 0.01 mg/kg in […] (0.0096 mg/kg) (estimated weight upon model preparation: 180 to 240 g).
# Under 2% inhalation anesthesia, left and right flanks of the rats (operation site) were shaved, and the skin of one of the flasks was dissected. After peeling off the skin, the muscle layer was cut to open using a retractor so as to protrude it to the outside of the body with fat tissue around the ovary, then the fallopian tubes were ligated with a silk thread (sterile suture) followed by removing the ovary including the fat tissue. The peeled muscle layer and one part of the peritoneum were sutured with silk thread (sterile suture), then kanamycin solution, antibiotics, (manufactured by Meiji Seika Pharma Co., Ltd., “Meiji,” kanamycin sulfate injection of 1000 mg was diluted to 5 mg/mL with injection solvent) was applied to the operation site. The dissected skin was sutured with silk thread (sterile suture). Another ovary in the opposite side was removed in the same manner. At the time of the operation, sterile gloves were used, and surgical instruments used were sterilized by an autoclave and beads sterilizer. The surgical area was shaved with an electric clipper followed by disinfected with isodine alcohol and covered with a sterile bedsheet and a covering cloth.
# Since the day of ovariectomy, after it was performed, E2 (β-Estradiol, 3 μg/mL animal) was subcutaneously administered to the back of the rats every day for 2 weeks. E2 (3 μg/mL animal) was administered in the same manner during 4 weeks after model preparation on the date that the model was prepared.
# Thirteen days after ovariectomy (day 0 counting), the rats were divided into four groups (N=8) as the total weight on the grouping day was uniform in each group. Animals excluded from the groups were distributed to the Sham group.
# On the next day of the grouping, models were prepared in accordance with Uchiide et al method, which was partially modified Vernon et al method. Rats were placed under inhalation anesthesia of 2% isoflurane, and made an incision in the abdomen along the midline, then the right uterine horn was excised and cut in half along the vertical line after removing the fat cells around the excised uterine horn. The uterine horn was made an incision along the horizontal axis to cut out two strips of approximately 5 mm×5 mm. The serosal surface of the abdominal cavity and the endometrial surface of the uterus strips were faced and sawed up the four corners thereof with a bioabsorbable suture (6-0, PDS-II, manufactured by Ethicon) to graft the uterine horns into the right and left abdominal walls one by one. In order to avoid adhesion, the abdominal cavity was washed with saline (manufactured by Otsuka Pharmaceutical Factory). Then, the abdominal wall fascia was sawed up with a bioabsorbable suture (4-0, monocryl, manufactured by Ethicon) and the skin was sawed up with a silk suture (4-0, blade silk, manufactured by Ethicon).
# A required amount of SR16234 was weighed, pulverized with an agate mortar and pestle, and suspended in 0.5% carboxymethylcellulose sodium (CMC-Na) solution to prepare a 2 mg/mL solution, then used as undiluted solution. Preparation was performed using a volumetric flask. […]
# IL-6 = assay: Gene expression analysis of endometrial implants (TaqMan), IL-6; type: in vivo, rat; details: for Expression level IL-6: endometrial implants, corrected by GAPDH, n 6, E2 control 14.24 ± 8.74
# Method: as §1, §2, §3, §4, §5, §6, §7
smiles,measurement,setting,value
"CCN(CC)Cc1ccc(OCC[C@H]2CC[C@H]3[C@@H]4[C@H](C)Cc5cc(O)ccc5[C@H]4CC[C@]23C)c(OC)c1 [SR16234, (7α)-21-[4-[(diethylamino)methyl]-2-methoxyphenoxy]-7-methyl-19-norpregna-1,3,5(10)-triene-3-ol]",Expression level MCP-1,MCP-1; 0.1 mg/kg,41.95 ± 21.68 ng
same,Expression level MCP-1,MCP-1; 0.3 mg/kg,28.30 ± 10.93 ng
same,Expression level MCP-1,MCP-1; 1 mg/kg,26.70 ± 18.30 ng
same,Total wet weight of the grafted uterine strips,[1]; 0.1 mg/kg p.o. 28 days,0.3988 g
same,Suppression rate of grafted uterine strip weight (% ± SE),[1]; 0.1 mg/kg p.o. once a day for 28 days,36.4 ± 25.2%
same,Suppression rate of the grafted uterine strip (average value),[1]; 0.1 mg/kg p.o.,26%
same,Total wet weight of the grafted uterine strips,[1]; 0.3 mg/kg p.o. 28 days,0.3401 g
same,Suppression rate of grafted uterine strip weight (% ± SE),[1]; 0.3 mg/kg p.o. once a day for 28 days,63.2 ± 17.7%
same,Suppression rate of the grafted uterine strip (average value),[1]; 0.3 mg/kg p.o.,45%
same,Suppression rate of the grafted uterine strip weight compared to the vehicle control group (in words),[1]; 1.0 mg/kg administered group,particularly significant suppression rate
same,Total wet weight of the grafted uterine strips compared to the vehicle control group (in words),[1]; 1.0 mg/kg administered group,particularly significant suppression ratio
same,Total wet weight of the grafted uterine strips,[1]; 1.0 mg/kg p.o. 28 days,0.2647 g
same,Suppression rate of grafted uterine strip weight (% ± SE),[1]; 1.0 mg/kg p.o. once a day for 28 days,97.7 ± 21.2%
same,Suppression rate of the grafted uterine strip (average value),[1]; 1.0 mg/kg p.o.,68% and 69.0%
same,Expression level IL-6,IL-6; 0.1 mg/kg,9.77 ± 9.78 ng
same,Expression level IL-6,IL-6; 1 mg/kg,6.74 ± 4.96 ng
same,Effect on the gene expression of IL-6 (in words),"IL-6; in comparison with the E2 control group, FIG. 3",dose-dependently inhibited
